From ChEMBL document CHEMBL1124880 (J Med Chem, 1990)
pIC50: −log10 of the molar value.

Columns and labels:
Rattus norvegicus = species on record: Rattus norvegicus; assay: Minimal effective dose in an rat anti-immobility effect using behavioral despair test; assay type: functional; conditions: read-out: MED
Adenosine receptor A1 = target: T1, Adenosine receptor A1 (Rattus norvegicus, UniProt P25099); assay: Binding affinity towards the adenosine A1 receptor in cerebral cortices of Sprague-Dawley male rats using [3H]CHA as radioligand.
T1 sequence (P25099 whole entry): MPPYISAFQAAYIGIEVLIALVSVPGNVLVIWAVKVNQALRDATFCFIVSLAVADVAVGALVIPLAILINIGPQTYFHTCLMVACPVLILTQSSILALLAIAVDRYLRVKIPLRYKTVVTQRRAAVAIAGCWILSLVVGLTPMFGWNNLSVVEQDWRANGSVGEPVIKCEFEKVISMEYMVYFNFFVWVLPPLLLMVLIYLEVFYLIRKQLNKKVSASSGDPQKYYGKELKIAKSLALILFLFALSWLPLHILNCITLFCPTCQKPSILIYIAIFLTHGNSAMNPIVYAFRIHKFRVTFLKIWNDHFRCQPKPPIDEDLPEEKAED

Adenosine A2 receptor = Adenosine A2 receptor (Rattus norvegicus, UniProt P29276+P30543)

Compound | minimal effective dose (Rattus norvegicus) | pIC50 (Adenosine receptor A1) | IC50 (Adenosine A2 receptor)
CCc1nnc2c(N(CC)CC)nc3cc(Cl)ccc3n12 | 10 mg/kg | – | –
CCN(CC)c1nc2ccc(F)cc2n2c(C(F)(F)F)nnc12 | > 32 mg/kg | – | –
CC(C)(C)Nc1nc2ccccc2n2cnnc12 | > 32 mg/kg | 4.72 | –
CC(=O)Nc1nc2cc(F)ccc2n2cnnc12 | ≤ 32 mg/kg | – | –
CCc1nnc2c(N3CCCC3)nc3ccccc3n12 | > 3.2 mg/kg | 5.00 | –
CCN(CC)c1nc2ccccc2n2c(-c3ccccc3)nnc12 | 1 mg/kg | – | –
Cc1nnc2c(NC(C)C)nc3ccccc3n12 | 10 mg/kg | 6.07 | –
Clc1ccc2nc(N3CCNCC3)c3nncn3c2c1 | > 32 mg/kg | – | –
CCc1nnc2c(N3CCCCC3)nc3ccccc3n12 | 10 mg/kg | 5.46 | –
CCNc1nc2ccc(F)cc2n2c(CC)nnc12 | 3.2 mg/kg | 6.15 | –
CCNc1nc2ccc(Cl)cc2n2c(C(F)(F)F)nnc12 | ≤ 32 mg/kg | – | –
CN1CCN(c2nc3ccccc3n3cnnc23)CC1 | > 32 mg/kg | < 4.00 | –
CCc1nnc2c(NC(C)=O)nc3cc(Cl)ccc3n12 | 3.2 mg/kg | – | –
CCNc1nc2ccccc2n2c(C(C)C)nnc12 | ≤ 32 mg/kg | 5.66 | –
CC(C)Nc1nc2ccccc2n2c(C(F)(F)F)nnc12 | < 10 mg/kg | 6.77 | 4.1 µM
CCc1nnc2c(N3CCOCC3)nc3ccccc3n12 | > 10 mg/kg | 4.55 | –
O=C1CCCN1c1nc2ccccc2n2cnnc12 | > 32 mg/kg | < 4.00 | –
Cc1nnc2c(N3CCCC3)nc3ccccc3n12 | > 32 mg/kg | 4.31 | –
CCc1nnc2c(N(C)C)nc3cc(Cl)c(Cl)cc3n12 | 3.2 mg/kg | – | –
CCc1nnc2c(NC(=O)C(C)(C)C)nc3ccc(Cl)cc3n12 | ≤ 32 mg/kg | – | –
c1ccc2c(c1)nc(N1CCCCC1)c1nncn12 | > 32 mg/kg | 4.00 | –
CCc1nnc2c(N(C(C)=O)C(C)=O)nc3ccccc3n12 | 3.2 mg/kg | 5.03 | –
CC(C)Nc1nc2cc(F)c(F)cc2n2cnnc12 | ≤ 3.2 mg/kg | 5.72 | –
CCN(CC)c1nc2ccccc2n2c(C(F)(F)F)nnc12 | ≤ 32 mg/kg | – | –
CCN(CC)c1nc2cc(Br)c(Br)cc2n2cnnc12 | > 32 mg/kg | – | –

Compound | minimal effective dose (Rattus norvegicus) | pIC50 (Adenosine receptor A1) | IC50 (Adenosine A2 receptor)
CCCN(CCC)c1nc2ccccc2n2cnnc12 | > 32 mg/kg | ≤ 4.00 | –
CC(=O)N(c1nc2cc(Cl)c(Cl)cc2n2cnnc12)C(C)C | > 32 mg/kg | – | –
CCc1nnc2c(N(C)C)nc3cc(Cl)ccc3n12 | 10 mg/kg | – | –
CCc1nnc2c(NC(C)=O)nc3cc(F)ccc3n12 | ≤ 3.2 mg/kg | – | –
CC(=O)Nc1nc2ccc(Cl)cc2n2c(C(F)(F)F)nnc12 | ≤ 3.2 mg/kg | 6.20 | –
CCc1nnc2c(N3CCNCC3)nc3cc(Cl)c(Cl)cc3n12 | ≤ 32 mg/kg | – | –
CCc1nnc2c(NC(C)=O)nc3cc(OC)ccc3n12 | > 32 mg/kg | – | –
CC(=O)N(c1nc2ccc(Cl)cc2n2cnnc12)C(C)C | ≤ 32 mg/kg | – | –
CCC(=O)Nc1nc2ccc(Cl)cc2n2c(CC)nnc12 | ≤ 3.2 mg/kg | – | –
CCCc1nnc2c(N(CC)CC)nc3ccccc3n12 | ≤ 32 mg/kg | – | –
CC(=O)Nc1nc2ccc(Cl)cc2n2c(C)nnc12 | 3.2 mg/kg | – | –
CCNc1nc2ccc(F)cc2n2c(C(F)(F)F)nnc12 | 3.2 mg/kg | 6.64 | 14 µM
CCc1nnc2c(N(CC)C(C)=O)nc3ccccc3n12 | ≤ 32 mg/kg | – | –
CC(=O)N(C(C)=O)c1nc2ccc(Cl)cc2n2cnnc12 | ≤ 32 mg/kg | – | –
CCN(CC)c1nc2ccccc2n2c(C(C)C)nnc12 | ≤ 32 mg/kg | 4.72 | –
CCN(CC)c1nc2ccc(F)cc2n2cnnc12 | 3.2 mg/kg | < 5.00 | –
CCNc1nc2cc(F)ccc2n2cnnc12 | 32 mg/kg | 4.96 | 26 µM
COc1ccc2c(c1)nc(NC(C)C)c1nncn12 | > 32 mg/kg | – | –
CCNc1nc2cc(F)c(F)cc2n2cnnc12 | 3.2 mg/kg | 5.33 | –
CCc1nnc2c(N(CC)CC)nc3ccc(OC)cc3n12 | ≤ 32 mg/kg | – | –
CC(C)Nc1nc2ccc(F)cc2n2c(O)nnc12 | > 32 mg/kg | 6.14 | 3.5 µM
CC(=O)Nc1nc2ccccc2n2cnnc12 | ≤ 32 mg/kg | – | –
CCNc1nc2ccc(F)cc2n2cnnc12 | 3.2 mg/kg | 5.49 | 17 µM
CCN(CC)c1nc2ccccc2n2c(C)nnc12 | 3.2 mg/kg | < 5.00 | –
